According to patent publication US20080113956A1, “Substituted Porphyrins” (priority 1997, published 2008):
Each block holds one molecule with its values, some of them ahead of it.

What was measured:
[1] = Electrochemistry: metal-centered redox potential; format: physicochemical; settings: metal centered, vs NHE, pH 7.8 if not otherwise specified
Description: Electrochemistry. The electrochemical characterization was performed as described previously on a Voltammetric Analyzer Model 600 (CH instrument) using a glassy carbon electrode (Ag/AgCl reference and Pt auxiliary electrodes), at 0.5 mM porphyrin, pH 7.8 (0.05 M phosphate buffer), 0.1 M NaCl. The potentials were standardized against potassium ferricyanide/potassium ferrocyanide couple (Batinic-Haberle et al, Arch. Biochem. Biophys. 343:225 (1997); Kolthof et al, J. Phys. Chem. 39:945 (1974)).
Electrochemistry. The metal-centered redox behavior of all metalloporphyrin products was reversible. The half-wave potentials (E^O1/2) were calculated as the average of the cathodic and anodic peaks and are given in mV vs NHE (Table 5). The average shift per chlorine is +55 mV (Table 5), which is in agreement with the values previously reported for H2TPP derivatives (between −50 and +70 mV) (Sen et al, Chem. Soc. Faraday Trans. 93:4281 (1997); Autret et al. J. Chem. Soc. Dalton Trans. 2793 (1996); Hariprasad et al, J. Chem. Soc. Dalton Trans. 3429 (1996); Tagliatesta et al, Inorg. Chem. 35:5570 (1996); Ghosh, J. Am. Chem. Soc. 117:4691 (1995); Takeuchi et al, J. Am. Chem. Soc. 116:9730 (1994); Binstead et al, Inorg. Chem. 30:1259 (1991); Giraudeau et al, J. Am. Chem. Soc. 101:3857 (1979)). This shift appears to be higher (˜+65 mV) between 0 and 1, and between 2 and 3 chlorines (Table 5). […] The manganese redox state of MnCl4TE-2-PyP^5 (E^O1/2=+448 mV) and MnOBTMPyP^4+ (E^O1.2=+480 mV) is 3+ and 2+, respectively. This difference may be explained by their difference in terms of redox potential (˜30 mV) but also by structural considerations, for instance an increased distortion of the porphyrin ring in the case of MnOBTMPyP^4+. (Batinic-Haberle et al, Arch. Biochem. Biophys. 343:225 (1997); Ochsenbein et al, Angew. Chem. Int. Ed. Engl. 33:348 (1994)).

rat brain homogenates = assay: Iron/ascorbate mediated lipid peroxidation of rat brain homogenates (TBARS); format: biochemical; settings: for IC50: rat brain homogenate, 30 minutes incubation with iron and ascorbate, TBARS
Description: Frozen adult Sprague-Dawley rat brains (Pel-Freez, Rogers, Ark.) were homogenized with a polytron (Turrax T25, Germany) in 5 volumes of ice cold 50 mM potassium phosphate at pH 7.4. Homogenate protein concentration was determined with the Coomassie Plus protein assay (Pierce, Rockford, Ill.) using bovine serum albumin as a standard. The homogenate volume was adjusted with buffer to give a final protein concentration of 10 mg/ml and frozen as aliquots at […].
Rat brain homogenates (2 mg protein) were incubated with varying concentrations of antioxidant at 37° C. for 15 minutes. Oxidation of the rat brain homogenate was initiated by the addition of 0.1 ml of a freshly prepared anaerobic stock solution containing iron(II) chloride (0.25 mM) and ascorbate (1 mM) as previously reported (Braughler et al, J. Biol. Chem. 262:10438 (1987)). Samples (final volume 1 ml) were placed in a shaking water bath at 37° C. for 30 minutes. The reactions were stopped by the addition of 0.1 ml of a stock butylated hydroxytoluene (60 mM) solution in ethanol.
The concentration of thiobarbituric acid reactive species (TBARS) in rat brain homogenates was used as a index of lipid peroxidation (Bernhem et al, J. Biol. Chem. 174:257 (1948); Witz et al, J. Free Rad. Biol. Med. 2:33 (1986); Kikugawa et al, Anal. Biochem. 202:249 (1992); Jentzsch et al, Free Rad. Biol. Med. 20P251 (1996)). Malondialdehyde standards were obtained by adding 8.2 μl of 1,1,3,3-tetramethoxypropane in 10 ml of 0.01 M HCl and mixing for 10 minutes at room temperature. This stock was further diluted in water to give standards that ranged from 0.25 to 25 μM. Samples or standards (200 μl) were acidified with 200 μl of 0.2 M phosphoric acid in 1.5 ml locking microfuge tubes. The color reaction was initiated by the addition of 25 μl of a 0.11M thiobarbituric acid solution and samples were placed in a 90° C. heating block for 45 minutes. TBARS were extracted with 0.5 ml of n-butanol by vortexing samples for 3 minute and chilling on ice for 1 minute. The samples were then centrifuged at 12,000×g for 3 minutes, 150 μl aliquots of the n-butanol phase were placed in each well of a 96-well plate and read at 535 nm in a Thermomax platereader (Molecular Devices, Sunnyvale, Calif.) at 25° C. Sample absorbencies were converted to MDA equivalencies (μM) by extrapolation from the MDA standard curve. None of the antioxidants at concentrations employed in these studies affected the reaction of MDA standards with thiobarbituric acid and reactions without TBA were used as subtraction blanks.
Data were presented as their means ±SE. The inhibitory concentration of antioxidants that decreased the degree of lipid peroxidation by 50% (IC50) and respective 95% confidence intervals (CI) were determined by fitting a sigmoidal curve with variable slope to the data (GraphPad Prizm, San Diego, Calif.).

[2] = SOD activity in U/mg (reduction of cytochrome c or photoreduction of NBT); format: biochemical; settings: unit = amount that inhibits one half the reduction of cytochrome c or photoreduction of NBT
[3] = cited from earlier work; for kcat of comparison compounds: literature comparators
[4] = vs NHE; literature comparators; cited from earlier work

Molecule: O=C(O)c1ccc(-c2c3nc(c(-c4ccc(C(=O)O)cc4)c4ccc([nH]4)c(-c4ccc(C(=O)O)cc4)c4nc(c(-c5ccc(C(=O)O)cc5)c5ccc2[nH]5)C=C4)C=C3)cc1.[Fe+3] [FeTBAP, Ferric 5,10,15,20-tetrakis(4-benzoic acid) porphyrin]
Redox Potential (E1/2) [1]: +0.01 V
IC50 (rat brain homogenates): 212 µM
SOD [2]: 24 U/mg

Molecule: C[n+]1ccccc1-c1c2nc(c(-c3cccc[n+]3C)c3ccc([nH]3)c(-c3cccc[n+]3C)c3nc(c(-c4cccc[n+]4C)c4ccc1[nH]4)C=C3)C=C2.[Zn+2] [ZnTM-2-PyP]
IC50 (rat brain homogenates): 591 µM
SOD [2]: trace

Molecule: MnTBAP
Redox Potential (E1/2) [1]: −0.19 V
IC50 (rat brain homogenates): 29 µM
SOD [2]: 179 U/mg

B1: catalase: enzymatic antioxidant (protein, UniProt P04040 2-527, looked up)
Catalase: ADSRDPASDQMQHWKEQRAAQKADVLTTGAGNPVGDKLNVITVGPRGPLLVQDVVFTDEMAHFDRERIPERVVHAKGAGAFGYFEVTHDITKYSKAKVFEHIGKKTPIAVRFSTVAGESGSADTVRDPRGFAVKFYTEDGNWDLVGNNTPIFFIRDPILFPSFIHSQKRNPQTHLKDPDMVWDFWSLRPESLHQVSFLFSDRGIPDGHRHMNGYGSHTFKLVNANGEAVYCKFHYKTDQGIKNLSVEDAARLSQEDPDYGIRDLFNAIATGKYPSWTFYIQVMTFNQAETFPFNPFDLTKVWPHKDYPLIPVGKLVLNRNPVNYFAEVEQIAFDPSNMPPGIEASPDKMLQGRLFAYPDTHRHRLGPNYLHIPVNCPYRARVANYQRDGPMCMQDNQGGAPNYYPNSFGAPEQQPSALEHSIQYSGEVRRFNTANDDNVTQVRAFYVNVLNEEQRKRLCENIAGHLKDAQIFIQKKAVKNFTEVHPDYGSHIQALLDKYNAEKPKNAIHTFVQSGSHLAAREKANL
inhibition of iron/ascorbate-initiated lipid peroxidation (rat brain homogenates; up to concentrations of 1 mg/ml): did not inhibit

Now from value to molecule, other results behind:

Redox Potential (E1/2) [1]: +0.48 V
IC50 (rat brain homogenates): 1.3 µM
Molecule: C[n+]1ccc(-c2c3nc(c(-c4cc[n+](C)cc4)c4[n-]c(c(Br)c4Br)c(-c4cc[n+](C)cc4)c4nc(c(-c5cc[n+](C)cc5)c5[n-]c2c(Br)c5Br)C(Br)=C4Br)C(Br)=C3Br)cc1.[Mn+3] [MnOBTM-4-PyP, Manganese β-octabromo-meso-tetrakis-(N-methylpyridinium-4-yl)porphyrin]
SOD [2]: 18,460 U/mg
kcat of comparison compounds [3]: 22 10^7 M^−1 s^−1
E°1/2 half-wave potential of comparison compounds [4]: +480 mV

IC50 (rat brain homogenates): 204 µM
Molecule: Cc1c(C)c2c(c(C)c1O)CCC(C)(C(=O)O)O2 (centres unmarked) [Trolox]

IC50 (rat brain homogenates): 241 µM
Molecule: C[n+]1ccc(-c2c3nc(c(-c4cc[n+](C)cc4)c4ccc([nH]4)c(-c4cc[n+](C)cc4)c4nc(c(-c5cc[n+](C)cc5)c5ccc2[nH]5)C=C4)C=C3)cc1.[Zn+2] [ZnTM-4-PyP]
SOD [2]: trace

IC50 (rat brain homogenates): 15 µM
Molecule: CuZnSOD: dimeric copper- and zinc-containing superoxide dismutase enzyme; bovine in Example VIII
Redox Potential (E1/2) [1]: +0.35 V
SOD [2]: 5,100 U/mg
kcat of comparison compounds [3]: 200 10^7 M^−1 s^−1
kcat per active site ([3]; per active site): 10^9 M^−1s^−1
E°1/2 half-wave potential of comparison compounds [4]: +260 mV
